Data set [1] is described as follows: Inhibition of HCV NS3/4A serine protease by continuous spectrophotometric assay. Also noted: species or system Hepacivirus hominis.
The nature of data set [2]: Selectivity for HCV NS3 serine protease over human neutrophil elastase.
The nature of data set [3]: AUC in rat at 10 mg/kg, po. To be noted: plasma. More on the design: dose 10 mg/kg, route oral. The data set is classed as ADME, organism-based.
The next data set deals with Hepatitis C virus. Put plainly: Antiviral activity against HCV replicon expressing NS3-5 infected in HuH7 cells assessed as inhibition of viral replication after 3 days by ELISA. The data set is classed as functional, organism-based, Hepacivirus hominis, Huh-7. (In antiviral work, replicon cells carry a viral genome segment that copies itself.)

The source made the active and inactive calls. The rule behind the calls is not given here.

`C=CCNC(=O)C(=O)C(CCC1CC1)NC(=O)[C@@H]1CC2(CN1C(=O)[C@@H](NC(=O)N[C@@H](CN1C(=O)CC(C)(C)CC1=O)C(C)(C)C)C(C)(C)C)SCCS2` (stereo not given in full) gave a Ki in data set [1] of 13 nM. Further, the Ratio in data set [2] was 1700.

As to `C=CCNC(=O)C(=O)C(CC1CC1)NC(=O)[C@@H]1CC2(CN1C(=O)[C@@H](NC(=O)NC1(CS(=O)(=O)C(C)(C)C)CCCCC1)C(C)(C)C)SCCCS2` (stereo not given in full), the affinity in data set [1] corresponds to a Ki of 18 nM. Moreover, in data set [2], the Ratio was 130. The same molecule yielded an area under the curve (AUC) in data set [3] of 1.69 µM·h.

In turn, `CC(C)(C)NC(=O)N[C@H](C(=O)N1CC2(C[C@H]1C(=O)NC(CC1CCC1)C(=O)C(N)=O)SCCS2)C(C)(C)C` (stereo not given in full) yielded a Ki in data set [1] of 600 nM.

For the molecule `C=CCNC(=O)C(=O)C(CC1CC1)NC(=O)[C@@H]1CC2(CN1C(=O)[C@@H](NC(=O)N[C@@H](CN1C(=O)CC(C)(C)CC1=O)C(C)(C)C)C1(C)CCCCC1)SCCS2` (stereo not given in full), the Ki in data set [1] worked out at 18 nM. Further, in data set [2], the Ratio amounted to 200. In data set [3], this molecule registered an AUC of 0.2 µM·h.

In data set [1], `CC(C)(C)NC(=O)N[C@H](C(=O)N1CC2(C[C@H]1C(=O)NC(CC1CC1)C(=O)C(N)=O)SCCS2)C1CCCCC1` (stereo not given in full) showed a Ki of 200 nM. That is a sub-micromolar value.

Molecule `C=CCNC(=O)C(=O)C(CCCC)NC(=O)[C@@H]1CC2(CN1C(=O)[C@@H](NC(=O)N[C@@H](CN1C(=O)CC(C)(C)CC1=O)C(C)(C)C)C(C)(C)C)SCCS2` (stereo not given in full) displayed an inhibitory constant (Ki) in data set [1] of 13 nM. Further, the Ratio in data set [2] stood at 1500. This molecule had an AUC in data set [3] of 0.2 µM·h.

In the case of `C=CCNC(=O)C(=O)C(CCC)NC(=O)[C@@H]1CC2(CN1C(=O)[C@@H](NC(=O)N[C@@H](CN1C(=O)CC(C)(C)CC1=O)C(C)(C)C)C(C)(C)C)SCCS2` (stereo not given in full), the Ki in data set [1] amounted to 5 nM. Besides, the Ratio in data set [2] was determined as 630. Besides, in data set [3], the AUC came out at 0.06 µM·h.

`CC(C)(C)NC(=O)N[C@H](C(=O)N1CC2(C[C@H]1C(=O)NC(CC1CCC1)C(=O)C(N)=O)SCCS2)C1CCCCC1` (stereo not given in full): the affinity in data set [1] corresponds to a Ki of 400 nM.

In turn, `CC(C)(C)NC(=O)N[C@H](C(=O)N1CC2(C[C@H]1C(=O)NC(CC1CC1)C(=O)C(N)=O)SCCS2)C(C)(C)C` (stereo not given in full) returned a Ki in data set [1] of 300 nM.

Turning to `C=CCNC(=O)C(=O)C(CC1CC1)NC(=O)[C@@H]1CC2(CN1C(=O)[C@@H](NC(=O)NC(C)(C)C)C(C)(C)C)SCCS2` (stereo not given in full), the affinity in data set [1] corresponds to a Ki of 700 nM. Also, the EC90 entry in the data set on Hepatitis C virus (huh-7) is recorded as “Not Active”. For the same molecule, the Ratio entry in data set [2] was “inactive”.

`CC(C)(C)NC(=O)N[C@H](C(=O)N1C[C@H]2[C@@H]([C@H]1C(=O)NC(CC1CCC1)C(=O)C(N)=O)C2(C)C)C(C)(C)C` (stereo not given in full) [BOCEPREVIR]: the Ki in data set [1] was determined as 14 nM. For the same molecule, the 90% effect concentration (EC90) with Hepatitis C virus (Hepatitis C virus, Huh-7, 72 h, read-out: EC90) was determined as 350 nM. The AUC in data set [3] stood at 0.14 µM·h.

In turn, `C=CCNC(=O)C(=O)C(CC1CC1)NC(=O)[C@@H]1CC2(CN1C(=O)[C@@H](NC(=O)N[C@@H](C(=O)OC1CC1)C(C)C)C1CCCCC1)SCCS2` (stereo not given in full) yielded a Ki in data set [1] of 72 nM. Further, the Ratio in data set [2] was 15.

In turn, `C=CCNC(=O)C(=O)C(CC1CC1)NC(=O)[C@@H]1CC2(CN1C(=O)[C@@H](NC(=O)N[C@@H](CN1C(=O)CC(C)(C)CC1=O)C(C)(C)C)C(C)(C)C)SCCS2` (stereo not given in full) returned a Ki in data set [1] of 21 nM. The Ratio in data set [2] came to 290.

With `C=CCNC(=O)C(=O)C(CCC)NC(=O)[C@@H]1CC2(CN1C(=O)[C@@H](NC(=O)NC1(CS(=O)(=O)C(C)(C)C)CCCCC1)C1(C)CCCCC1)SCCS2` (stereo not given in full), the affinity in data set [1], expressed as Ki, was 19 nM. The Ratio in data set [2] was 10. In data set [3], this molecule gave an AUC of 1.34 µM·h.

As to `C=CCNC(=O)C(=O)C(CC1CC1)NC(=O)[C@@H]1CC2(CN1C(=O)[C@@H](NC(=O)NC1(CS(=O)(=O)C(C)(C)C)CCCCC1)C(C)(C)C)SCCS2` (stereo not given in full), in data set [1], affinity was put at a Ki of 33 nM. In addition, the Ratio in data set [2] is 40. In addition, in data set [3], the AUC was found to be 0.77 µM·h.

Consider `C=CCNC(=O)C(=O)C(CCC)NC(=O)[C@@H]1CC2(CN1C(=O)[C@@H](NC(=O)N[C@@H](CN1C(=O)CC(C)(C)CC1=O)C(C)(C)C)C1(C)CCCCC1)SCCS2` (stereo not given in full), for which the Ki in data set [1] is 6 nM. For the same molecule, the Ratio in data set [2] turned out to be 240. Moreover, in data set [3], the AUC turned out to be 0.04 µM·h.

In the case of `C=CCNC(=O)C(=O)C(CC1CC1)NC(=O)[C@@H]1CC2(CN1C(=O)[C@@H](NC(=O)N[C@@H](C(=O)OC1CC1)C(C)C)C(C)(C)C)SCCS2` (stereo not given in full), the inhibition constant (Ki) in data set [1] was found to be 84 nM. Moreover, the Ratio in data set [2] was determined as 40.

`C=CCNC(=O)C(=O)C(CCC)NC(=O)[C@@H]1CC2(CN1C(=O)[C@@H](NC(=O)NC1(CS(=O)(=O)C(C)(C)C)CCCCC1)C(C)(C)C)SCCCS2` (stereo not given in full) returned a Ki in data set [1] of 7 nM. Further, in data set [2], the Ratio turned out to be 128. This molecule came in with an exposure (AUC) in data set [3] of 2.56 µM·h.

On to `C=CCNC(=O)C(=O)C(CCC)NC(=O)[C@@H]1CC2(CN1C(=O)[C@@H](NC(=O)NC1(CS(=O)(=O)C(C)(C)C)CCCCC1)C(C)(C)C)SCCS2` (stereo not given in full), for which the affinity in data set [1] corresponds to a Ki of 11 nM. For the same molecule, the Ratio in data set [2] was 50. This molecule also gave an AUC in data set [3] of 0.57 µM·h.

In general, Ki refers to the dissociation constant of the complex between target and ligand, obtained from inhibition or displacement. Read a low Ki as a stronger hold on the target. As a reminder, the AUC is the area under the concentration-time curve, a measure of exposure. A higher AUC goes with high exposure. For orientation: EC90 means the concentration at which the effect reaches the 90% level.

Source of the values: ChEMBL document CHEMBL1154989, “Towards the second generation of Boceprevir: Dithianes as an alternative P2 substituent for 2,2-dimethyl cycloproyl proline in HCV NS3 protease inhibitors” (Bioorg Med Chem Lett, 2010).
